Patent US6809065B2, “Herbicide containing substituted pyrazole derivative as active ingredient” (SDS Biotech K.K., priority 2001, dated 2004)

Experiments:
[1] = test system: Digitaria adscendens; assay: Upland field foliage treatment (Test Example 1); type: in vivo; details: foliage treatment 14th day after sowing, wettable powder, 1 kg active ingredient per hectare, evaluated 21st day after application
From the text: (§1) In the above evaluation criteria, the term “herbicidal effect” means evaluation to the objective weeds, and a higher index of the evaluation criteria means higher herbicidal effect on the objective weeds. On the other hand, a lower index of the evaluation criteria for the crops means higher safety to the crops. A plastic pot of 130 cm^2 was filled with upland soil. Then, seeds of weeds, namely, Setaria viridis, Digitaria adscendens, Chenopodium album and Stellaria media, and seeds of crops, namely, soybean (Glycine max) and wheat (Triticum aestivum), were sowed and covered with soil of about 1 cm thick. On the 14th day after the sowing, a wettable powder composition was prepared in accordance with Formulation Example 1, diluted with water in such an amount that the amount of the active ingredient became 1 kg per hectare, and then uniformly applied to the plant leaf surfaces. On the 21st day after the application, observation and evaluation were carried out according to the aforesaid criteria.

[2] = test system: Setaria viridis; assay: Upland field foliage treatment (Test Example 1); type: in vivo; details: foliage treatment 14th day after sowing, wettable powder, 1 kg active ingredient per hectare, evaluated 21st day after application
From the text: as §1

[3] = test system: Stellaria media; assay: Upland field foliage treatment (Test Example 1); type: in vivo; details: foliage treatment 14th day after sowing, wettable powder, 1 kg active ingredient per hectare, evaluated 21st day after application
From the text: as §1

[4] = test system: Chenopodium album; assay: Upland field foliage treatment (Test Example 1); type: in vivo; details: foliage treatment 14th day after sowing, wettable powder, 1 kg active ingredient per hectare, evaluated 21st day after application
From the text: as §1

[5] = test system: Echinochloa spp.; assay: Paddy field treatment (Test Example 3); type: in vivo, Echinochloa crusgalli; details: paddy pot, submerged 4 cm, dropped on water surface 10th day after transplantation, 1 kg active ingredient per hectare, evaluated 21st day
Protocol: (§2) In the above evaluation criteria, the term “herbicidal effect” means evaluation to the objective weeds, and a higher index of the evaluation criteria means higher herbicidal effect on the objective weeds. On the other hand, a lower index of the evaluation criteria for the crops means higher safety to the crops. A plastic pot of 130 cm^2 was filled with paddy soil, and soil puddling was carried out to adjust the submerged depth to 4 cm. Then, seeds of Echinochloa crusgalli, Monochoria vaginalis, Ammannia multiflora and Scirpus juncoides were sowed, and rice (Oryza […], variety: Koshihikari) of two-leaf period was transplanted by 2 rice plants of 1 stub per pot at a depth of 3 cm. On the 10th day after the transplantation, a wettable powder composition was prepared in accordance with Formulation Example 1, diluted with water in such an amount that the amount of the active ingredient became 1 kg per hectare, and then dropped to diffuse on the water surface. On the 21st day after the dropping, observation and evaluation were carried out according to the aforesaid criteria.

[6] = test system: soybean (Glycine max); assay: Upland soil treatment (Test Example 2), crop; type: in vivo; details: soil surface treatment next day after sowing, 1 kg active ingredient per hectare, evaluated 21st day, lower index = higher safety
From the text: (§3) In the above evaluation criteria, the term “herbicidal effect” means evaluation to the objective weeds, and a higher index of the evaluation criteria means higher herbicidal effect on the objective weeds. On the other hand, a lower index of the evaluation criteria for the crops means higher safety to the crops. A plastic pot of 130 cm^2 was filled with upland soil. Then, seeds of weeds, namely, Setaria viridis, Digitaria adscendens, Chenopodium album and Stellaria media, and seeds of crops, namely, soybean (Glycine max) and wheat (Triticum aestivum), were sowed and covered with soil of about 1 cm thick. On the next day after the sowing, a wettable powder composition was prepared in accordance with Formulation Example 1, diluted with water in such an amount that the amount of the active ingredient became 1 kg per hectare, and then uniformly applied to the soil surface. On the 21st day after the application, observation and evaluation were carried out according to the aforesaid criteria.

[7] = test system: wheat (Triticum aestivum); assay: Upland soil treatment (Test Example 2), crop; type: in vivo; details: soil surface treatment next day after sowing, 1 kg active ingredient per hectare, evaluated 21st day, lower index = higher safety
From the text: as §3

[8] = test system: soybean (Glycine max); assay: Upland field foliage treatment (Test Example 1), crop; type: in vivo; details: foliage treatment 14th day after sowing, 1 kg active ingredient per hectare, evaluated 21st day, lower index = higher safety
From the text: as §1

[9] = test system: wheat (Triticum aestivum); assay: as above; type: in vivo; details: foliage treatment 14th day after sowing, 1 kg active ingredient per hectare, evaluated 21st day, lower index = higher safety
From the text: as §1

[10] = test system: rice (Oryza sative, variety: Koshihikari); assay: Paddy field treatment (Test Example 3), crop; type: in vivo, Oryza sativa; details: transplanted rice two-leaf period, water surface treatment 10th day after transplantation, 1 kg active ingredient per hectare, evaluated 21st day, lower index = higher safety
Protocol: as §2

[11] = test system: Monochoria vaginalis; assay: Paddy field treatment (Test Example 3); type: in vivo; details: paddy pot, submerged 4 cm, dropped on water surface 10th day after transplantation, 1 kg active ingredient per hectare, evaluated 21st day
Protocol: as §2

[12] = test system: Scirpus juncoides; assay: Paddy field treatment (Test Example 3); type: in vivo; details: paddy pot, submerged 4 cm, dropped on water surface 10th day after transplantation, 1 kg active ingredient per hectare, evaluated 21st day
Protocol: as §2

[13] = test system: Ammannia multiflora; assay: Paddy field treatment (Test Example 3); type: in vivo; details: paddy pot, submerged 4 cm, dropped on water surface 10th day after transplantation, 1 kg active ingredient per hectare, evaluated 21st day
Protocol: as §2

[14] = test system: Digitaria adscendens; assay: Upland soil treatment (Test Example 2); type: in vivo; details: soil surface treatment next day after sowing, wettable powder, 1 kg active ingredient per hectare, evaluated 21st day after application
From the text: as §3

[15] = test system: Setaria viridis; assay: Upland soil treatment (Test Example 2); type: in vivo; details: soil surface treatment next day after sowing, wettable powder, 1 kg active ingredient per hectare, evaluated 21st day after application
From the text: as §3

[16] = test system: Stellaria media; assay: Upland soil treatment (Test Example 2); type: in vivo; details: soil surface treatment next day after sowing, wettable powder, 1 kg active ingredient per hectare, evaluated 21st day after application
From the text: as §3

[17] = test system: Chenopodium album; assay: Upland soil treatment (Test Example 2); type: in vivo; details: soil surface treatment next day after sowing, wettable powder, 1 kg active ingredient per hectare, evaluated 21st day after application
From the text: as §3

Row | Compound | Herbicidal activity Digitaria adscendens [1] | Herbicidal activity Setaria viridis [2] | Herbicidal activity Stellaria media [3] | Herbicidal activity Chenopodium album [4] | Herbicidal activity Echinochloa spp. [5] | Herbicidal activity Glycine max [6] | Herbicidal activity Triticum aestivum [7] | Herbicidal activity Glycine max [8] | Herbicidal activity Triticum aestivum [9] | Herbicidal activity Oryza sativa [10] | Herbicidal activity Monochoria vaginalis [11] | Herbicidal activity Scirpus juncoides [12] | Herbicidal activity Ammannia multiflora [13] | Herbicidal activity Digitaria adscendens [14] | Herbicidal activity Setaria viridis [15] | Herbicidal activity Stellaria media [16] | Herbicidal activity Chenopodium album [17]
1 | COC=C(Cn1nc(-c2ccc(Cl)cc2Cl)cc1C)C(=O)OC [Compound 7] | 4 (herbicidal effect of not less than 70% by weight and less than 90% by weight) | 4 (herbicidal effect of not less than 70% by weight and less than 90% by weight) | 5 (herbicidal effect of not less than 90% by weight) | 5 (herbicidal effect of not less than 90% by weight) | 4 (herbicidal effect of not less than 70% by weight and less than 90% by weight) | 0 (herbicidal effect of not less than 0% by weight and less than 10% by weight) | 0 (herbicidal effect of not less than 0% by weight and less than 10% by weight) | 0 (herbicidal effect of not less than 0% by weight and less than 10% by weight) | 0 (herbicidal effect of not less than 0% by weight and less than 10% by weight) | 0 (herbicidal effect of not less than 0% by weight and less than 10% by weight) | 4 (herbicidal effect of not less than 70% by weight and less than 90% by weight) | 3 (herbicidal effect of not less than 50% by weight and less than 70% by weight) | 4 (herbicidal effect of not less than 70% by weight and less than 90% by weight) | 4 (herbicidal effect of not less than 70% by weight and less than 90% by weight) | 5 (herbicidal effect of not less than 90% by weight) | 4 (herbicidal effect of not less than 70% by weight and less than 90% by weight) | 4 (herbicidal effect of not less than 70% by weight and less than 90% by weight)
2 | COC=C(Cn1nc(-c2cc(Cl)ccc2Cl)cc1C)C(=O)OC [Compound 8] | 5 (herbicidal effect of not less than 90% by weight) | 4 (herbicidal effect of not less than 70% by weight and less than 90% by weight) | 5 (herbicidal effect of not less than 90% by weight) | 5 (herbicidal effect of not less than 90% by weight) | 4 (herbicidal effect of not less than 70% by weight and less than 90% by weight) | 0 (herbicidal effect of not less than 0% by weight and less than 10% by weight) | 0 (herbicidal effect of not less than 0% by weight and less than 10% by weight) | 0 (herbicidal effect of not less than 0% by weight and less than 10% by weight) | 0 (herbicidal effect of not less than 0% by weight and less than 10% by weight) | 0 (herbicidal effect of not less than 0% by weight and less than 10% by weight) | 5 (herbicidal effect of not less than 90% by weight) | 4 (herbicidal effect of not less than 70% by weight and less than 90% by weight) | 5 (herbicidal effect of not less than 90% by weight) | 4 (herbicidal effect of not less than 70% by weight and less than 90% by weight) | 4 (herbicidal effect of not less than 70% by weight and less than 90% by weight) | 4 (herbicidal effect of not less than 70% by weight and less than 90% by weight) | 4 (herbicidal effect of not less than 70% by weight and less than 90% by weight)
3 | COC=C(Cn1nc(-c2c(Cl)cccc2Cl)cc1C)C(=O)OC [Compound 9] | 4 (herbicidal effect of not less than 70% by weight and less than 90% by weight) | 4 (herbicidal effect of not less than 70% by weight and less than 90% by weight) | 4 (herbicidal effect of not less than 70% by weight and less than 90% by weight) | 4 (herbicidal effect of not less than 70% by weight and less than 90% by weight) | 3 (herbicidal effect of not less than 50% by weight and less than 70% by weight) | 0 (herbicidal effect of not less than 0% by weight and less than 10% by weight) | 0 (herbicidal effect of not less than 0% by weight and less than 10% by weight) | 0 (herbicidal effect of not less than 0% by weight and less than 10% by weight) | 0 (herbicidal effect of not less than 0% by weight and less than 10% by weight) | 0 (herbicidal effect of not less than 0% by weight and less than 10% by weight) | 3 (herbicidal effect of not less than 50% by weight and less than 70% by weight) | 3 (herbicidal effect of not less than 50% by weight and less than 70% by weight) | 3 (herbicidal effect of not less than 50% by weight and less than 70% by weight) | 4 (herbicidal effect of not less than 70% by weight and less than 90% by weight) | 4 (herbicidal effect of not less than 70% by weight and less than 90% by weight) | 4 (herbicidal effect of not less than 70% by weight and less than 90% by weight) | 5 (herbicidal effect of not less than 90% by weight)
